Assay: xn = mol fraction of the nth substance listed, in the solute-free solvent

Nc1cncc(Cl)n1 + CCCO + O
solubility (g/100 g solution)
Conditions | 278.15 K | 283.15 K | 288.15 K | 293.15 K | 298.15 K | 303.15 K | 308.15 K | 313.15 K | 318.15 K | 323.15 K
x2 = 0.03225 | – | – | – | – | – | – | – | – | – | 0.0893
x2 = 0.06974 | – | – | – | – | – | – | – | – | – | 0.208
x2 = 0.1139 | 0.364 | 0.43 | 0.499 | 0.588 | 0.686 | 0.81 | 0.936 | 1.08 | 1.23 | 1.41
x2 = 0.1666 | 0.527 | 0.621 | 0.722 | 0.852 | 0.998 | 1.18 | 1.36 | 1.57 | 1.79 | 2.05
x2 = 0.2307 | 0.638 | 0.75 | 0.883 | 1.04 | 1.25 | 1.48 | 1.73 | 2.01 | 2.31 | 2.65
x2 = 0.3103 | 0.747 | 0.891 | 1.06 | 1.26 | 1.51 | 1.79 | 2.11 | 2.46 | 2.83 | 3.24
x2 = 0.4117 | 0.837 | 1.02 | 1.22 | 1.46 | 1.76 | 2.11 | 2.48 | 2.89 | 3.33 | 3.85
x2 = 0.5454 | 0.928 | 1.11 | 1.31 | 1.61 | 1.94 | 2.37 | 2.82 | 3.33 | 3.85 | 4.44
x2 = 0.7297 | 0.918 | 1.12 | 1.37 | 1.7 | 2.09 | 2.52 | 3.02 | 3.56 | 4.15 | 4.87

Oc1ccc(Cl)c2cccnc12 + CCCOC(C)=O + CCO
solubility (g/100 g solution)
Conditions | 278.15 K | 283.15 K | 288.15 K | 293.15 K | 298.15 K | 303.15 K | 308.15 K | 313.15 K | 318.15 K | 323.15 K
x2 = 0.1013 | 1.48 | 1.74 | 2.02 | 2.4 | 2.82 | 3.28 | 3.89 | 4.6 | 5.52 | 6.43
x2 = 0.2214 | 1.97 | 2.29 | 2.69 | 3.2 | 3.76 | 4.43 | 5.18 | 6.1 | 7.46 | 8.81
x2 = 0.4035 | 2.41 | 2.81 | 3.3 | 3.87 | 4.53 | 5.41 | 6.43 | 7.55 | 8.8 | 10.5
x2 = 0.6434 | 2.74 | 3.26 | 3.83 | 4.52 | 5.3 | 6.25 | 7.27 | 8.56 | 9.99 | 11.7

CCCCOc1ccc(C(=O)CCN2CCCCC2)cc1.Cl + CCO + CCCCCC
solubility (g/100 g solution)
Conditions | 278.15 K | 283.15 K | 288.15 K | 293.15 K | 298.15 K | 303.15 K | 308.15 K | 313.15 K | 318.15 K | 323.15 K
x2 = 0.1 | 2.56 | 2.95 | 3.35 | 3.75 | 4.22 | 4.75 | 5.33 | 5.97 | 6.73 | 7.53
x2 = 0.2 | 5.09 | 5.71 | 6.4 | 7.2 | 8.01 | 8.91 | 9.95 | 11.1 | 12.4 | 13.8
x2 = 0.3 | 7.84 | 8.72 | 9.72 | 10.8 | 12 | 13.4 | 14.9 | 16.6 | 18.4 | 20.3
x2 = 0.4 | 10.6 | 11.8 | 13.1 | 14.6 | 16.2 | 17.9 | 19.8 | 21.8 | 24 | 26.4
x2 = 0.5 | 13.7 | 15.2 | 16.8 | 18.6 | 20.5 | 22.6 | 24.8 | 27.3 | 29.9 | 32.6
x2 = 0.6 | 16.8 | 18.8 | 20.6 | 22.7 | 25 | 27.3 | 29.9 | 32.6 | 35.5 | 38.5
x2 = 0.7 | 20.3 | 22.4 | 24.6 | 27 | 29.4 | 32 | 35 | 37.9 | 41 | 44.1
x2 = 0.8 | 23.9 | 26.3 | 28.7 | 31.4 | 34.1 | 36.8 | 39.8 | 43 | 46.3 | 49.5
x2 = 0.9 | 27.7 | 30.4 | 33 | 35.8 | 38.8 | 41.8 | 45 | 48.3 | 51.6 | 54.9

CCCCOc1ccc(C(=O)CCN2CCCCC2)cc1.Cl + CCO + CCOC(C)=O
solubility (g/100 g solution)
Conditions | 278.15 K | 283.15 K | 288.15 K | 293.15 K | 298.15 K | 303.15 K | 308.15 K | 313.15 K | 318.15 K | 323.15 K
x2 = 0.1 | 4.4 | 5.22 | 6.12 | 7.23 | 8.43 | 9.93 | 11.7 | 13.6 | 15.8 | 18.4
x2 = 0.2 | 6.73 | 7.77 | 8.92 | 10.3 | 11.8 | 13.6 | 15.6 | 17.8 | 20.4 | 23.2
x2 = 0.3 | 9.22 | 10.6 | 12 | 13.6 | 15.3 | 17.3 | 19.6 | 22 | 24.8 | 27.7
x2 = 0.4 | 11.9 | 13.4 | 15.1 | 17 | 18.9 | 21.2 | 23.7 | 26.4 | 29.3 | 32.4
x2 = 0.5 | 14.7 | 16.5 | 18.3 | 20.4 | 22.6 | 25.2 | 27.9 | 30.8 | 33.9 | 37
x2 = 0.6 | 17.6 | 19.7 | 21.7 | 24.1 | 26.5 | 29.3 | 32.2 | 35.2 | 38.4 | 41.7
x2 = 0.7 | 20.8 | 23.2 | 25.4 | 28 | 30.6 | 33.5 | 36.6 | 39.8 | 43.1 | 46.5
x2 = 0.8 | 24.2 | 26.8 | 29.2 | 32 | 34.7 | 37.8 | 41 | 44.2 | 47.6 | 51
x2 = 0.9 | 27.9 | 30.7 | 33.2 | 36.1 | 39 | 42.2 | 45.5 | 48.8 | 52.2 | 55.5

CC(=O)OC(c1ccccc1)C(Cl)(Cl)Cl (stereo unspecified) + CCO + O
solubility (g/100 g solution)
Conditions | 288.15 K | 293.15 K | 298.15 K | 303.15 K | 308.15 K | 313.15 K | 318.15 K | 323.15 K | 328.15 K
x2 = 0.4 | 0.237 | 0.492 | 0.787 | 1.3 | 1.94 | 2.85 | 3.79 | 4.63 | 5.65
x2 = 0.5 | 0.569 | 0.744 | 1.1 | 1.98 | 2.72 | 3.4 | 4.43 | 6.17 | 8.15
x2 = 0.6 | 1.11 | 1.43 | 1.77 | 3.24 | 4.3 | 5.43 | 7.34 | 9.98 | 13.9
x2 = 0.7 | 1.91 | 2.46 | 3 | 4.64 | 6.14 | 7.47 | 9.86 | 13.2 | 18
x2 = 0.8 | 2.52 | 3.05 | 4.06 | 6.07 | 7.63 | 9.55 | 12.1 | 16.4 | 21.2
x2 = 0.9 | 3.42 | 4.13 | 5.46 | 7.3 | 9.27 | 11.8 | 15.2 | 20 | 26.4

CCCCOc1ccc(C(=O)CCN2CCCCC2)cc1.Cl + CCO + O
solubility (g/100 g solution)
Conditions | 278.15 K | 283.15 K | 288.15 K | 293.15 K | 298.15 K | 303.15 K | 308.15 K | 313.15 K | 318.15 K | 323.15 K
x2 = 0.1 | 34.6 | 37.9 | 41.1 | 44.6 | 48.1 | 51.6 | 55.2 | 58.8 | 62.2 | 65.7
x2 = 0.2 | 33.9 | 37.1 | 40.3 | 43.8 | 47.1 | 50.6 | 54.1 | 57.7 | 61.1 | 64.5
x2 = 0.3 | 33.4 | 36.5 | 39.6 | 43 | 46.3 | 49.8 | 53.2 | 56.7 | 60.1 | 63.5
x2 = 0.4 | 33.1 | 36.1 | 39.2 | 42.4 | 45.7 | 49 | 52.4 | 55.9 | 59.4 | 62.7
x2 = 0.5 | 32.7 | 35.7 | 38.8 | 42 | 45.1 | 48.5 | 51.8 | 55.3 | 58.7 | 62
x2 = 0.6 | 32.5 | 35.4 | 38.4 | 41.5 | 44.7 | 48 | 51.3 | 54.7 | 58.2 | 61.5
x2 = 0.7 | 32.2 | 35.1 | 38.1 | 41.2 | 44.4 | 47.6 | 50.9 | 54.3 | 57.8 | 61
x2 = 0.8 | 32 | 35 | 37.9 | 41 | 44.1 | 47.2 | 50.5 | 53.9 | 57.3 | 60.6
x2 = 0.9 | 31.9 | 34.8 | 37.8 | 40.7 | 43.8 | 47 | 50.3 | 53.6 | 57 | 60.2

Nc1cncc(Cl)n1 + CCO + O
solubility (g/100 g solution)
Conditions | 278.15 K | 283.15 K | 288.15 K | 293.15 K | 298.15 K | 303.15 K | 308.15 K | 313.15 K | 318.15 K | 323.15 K
x2 = 0.04165 | 0.0437 | 0.053 | 0.0624 | 0.075 | 0.0883 | 0.106 | 0.124 | 0.145 | 0.168 | 0.197
x2 = 0.08908 | 0.071 | 0.0856 | 0.101 | 0.12 | 0.141 | 0.17 | 0.198 | 0.23 | 0.267 | 0.313
x2 = 0.1436 | 0.11 | 0.132 | 0.155 | 0.185 | 0.217 | 0.259 | 0.302 | 0.35 | 0.405 | 0.476
x2 = 0.2068 | 0.161 | 0.193 | 0.226 | 0.27 | 0.316 | 0.376 | 0.438 | 0.508 | 0.588 | 0.691
x2 = 0.2812 | 0.21 | 0.253 | 0.299 | 0.358 | 0.419 | 0.501 | 0.589 | 0.681 | 0.792 | 0.934
x2 = 0.3698 | 0.277 | 0.332 | 0.392 | 0.469 | 0.548 | 0.654 | 0.765 | 0.889 | 1.03 | 1.23
x2 = 0.4772 | 0.337 | 0.404 | 0.479 | 0.573 | 0.677 | 0.806 | 0.943 | 1.1 | 1.28 | 1.51
x2 = 0.6101 | 0.374 | 0.451 | 0.544 | 0.654 | 0.776 | 0.918 | 1.08 | 1.26 | 1.48 | 1.77
x2 = 0.7788 | 0.399 | 0.482 | 0.579 | 0.7 | 0.826 | 0.99 | 1.16 | 1.38 | 1.62 | 1.94
